Experimental data from PubChem BioAssay (NCI).
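48-hour exposure; five concentrations; linearly interpolated endpoints. TGI denotes the concentration required for complete inhibition of growth.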

Legend:
Experiment in all cases: NCI tumour cell line growth inhibition, 48 h
NCI/ADR-RES ovarian = tested on: NCI/ADR-RES ovarian
UACC-62 melanoma = tested on: UACC-62 melanoma
BT-549 breast = tested on: BT-549 breast
MOLT-4 leukemia = tested on: MOLT-4 leukemia
OVCAR-4 ovarian = tested on: OVCAR-4 ovarian
SN12C renal = tested on: SN12C renal
LOX IMVI melanoma = tested on: LOX IMVI melanoma
SR leukemia = tested on: SR leukemia
HCC-2998 colon = tested on: HCC-2998 colon
UO-31 renal = tested on: UO-31 renal
MDA-MB-435 = tested on: MDA-MB-435
HT29 colon = tested on: HT29 colon
HOP-62 NSCLC = tested on: HOP-62 NSCLC
HS 578T breast = tested on: HS 578T breast
UACC-257 melanoma = tested on: UACC-257 melanoma
ACHN renal = tested on: ACHN renal
SK-MEL-2 melanoma = tested on: SK-MEL-2 melanoma
SF-295 CNS = tested on: SF-295 CNS
T-47D breast = tested on: T-47D breast
OVCAR-5 ovarian = tested on: OVCAR-5 ovarian
HCT-116 colon = tested on: HCT-116 colon
K-562 leukemia = tested on: K-562 leukemia
SK-MEL-28 melanoma = tested on: SK-MEL-28 melanoma
MCF7 breast = tested on: MCF7 breast
RXF 393 renal = tested on: RXF 393 renal
786-0 renal = tested on: 786-0 renal
HL-60(TB) leukemia = tested on: HL-60(TB) leukemia
NCI-H23 lung = tested on: NCI-H23 lung
SNB-19 CNS = tested on: SNB-19 CNS
MDA-MB-231 breast = tested on: MDA-MB-231 breast
HCT-15 colon = tested on: HCT-15 colon
SF-539 CNS = tested on: SF-539 CNS
SW-620 colon = tested on: SW-620 colon
SF-268 CNS = tested on: SF-268 CNS
NCI-H226 lung = tested on: NCI-H226 lung
PC-3 prostate = tested on: PC-3 prostate
U251 CNS = tested on: U251 CNS
RPMI-8226 leukemia = tested on: RPMI-8226 leukemia
M14 melanoma = tested on: M14 melanoma
KM12 colon = tested on: KM12 colon
EKVX NSCLC = tested on: EKVX NSCLC
HOP-92 NSCLC = tested on: HOP-92 NSCLC
NCI-H460 lung = tested on: NCI-H460 lung
MALME-3M melanoma = tested on: MALME-3M melanoma
SK-OV-3 ovarian = tested on: SK-OV-3 ovarian
A549 NSCLC = tested on: A549 NSCLC
OVCAR-8 ovarian = tested on: OVCAR-8 ovarian
SK-MEL-5 melanoma = tested on: SK-MEL-5 melanoma
SNB-75 CNS = tested on: SNB-75 CNS
CAKI-1 renal = tested on: CAKI-1 renal
TK-10 renal = tested on: TK-10 renal
IGROV1 ovarian = tested on: IGROV1 ovarian
NCI-H522 lung = tested on: NCI-H522 lung
COLO 205 colon = tested on: COLO 205 colon

Compound: COC(=O)/C=C\S/C(=C(/c1ccccc1)n1ccc(C(=O)OC)n1)c1ccccc1
- TGI (NCI/ADR-RES ovarian): > 100 µM
- TGI (UACC-62 melanoma): 10.3 µM
- TGI (BT-549 breast): > 100 µM
- TGI (MOLT-4 leukemia): > 100 µM
- TGI (OVCAR-4 ovarian): > 100 µM
- TGI (SN12C renal): > 100 µM
- TGI (LOX IMVI melanoma): > 100 µM
- TGI (SR leukemia): > 100 µM
- TGI (HCC-2998 colon): > 100 µM
- TGI (UO-31 renal): 38.7 µM
- TGI (MDA-MB-435): > 100 µM
- TGI (HT29 colon): > 100 µM
- TGI (HOP-62 NSCLC): 50.4 µM
- TGI (HS 578T breast): 48 µM
- TGI (UACC-257 melanoma): > 100 µM
- TGI (ACHN renal): 20.1 µM
- TGI (SK-MEL-2 melanoma): 59.5 µM
- TGI (SF-295 CNS): > 100 µM
- TGI (T-47D breast): > 100 µM
- TGI (OVCAR-5 ovarian): > 100 µM
- TGI (HCT-116 colon): > 100 µM
- TGI (K-562 leukemia): > 100 µM
- TGI (SK-MEL-28 melanoma): > 100 µM
- TGI (MCF7 breast): 28.7 µM
- TGI (RXF 393 renal): 39.8 µM
- TGI (786-0 renal): 36.6 µM
- TGI (HL-60(TB) leukemia): > 100 µM
- TGI (NCI-H23 lung): > 100 µM
- TGI (SNB-19 CNS): 42.2 µM
- TGI (MDA-MB-231 breast): 70.9 µM
- TGI (HCT-15 colon): > 100 µM
- TGI (SF-539 CNS): > 100 µM
- TGI (SW-620 colon): > 100 µM
- TGI (SF-268 CNS): 39.4 µM
- TGI (NCI-H226 lung): > 100 µM
- TGI (PC-3 prostate): 49.7 µM
- TGI (U251 CNS): 38.2 µM
- TGI (RPMI-8226 leukemia): > 100 µM
- TGI (M14 melanoma): > 100 µM
- TGI (KM12 colon): > 100 µM
- TGI (EKVX NSCLC): > 100 µM
- TGI (HOP-92 NSCLC): 86.2 µM
- TGI (NCI-H460 lung): > 100 µM
- TGI (MALME-3M melanoma): 43.9 µM
- TGI (SK-OV-3 ovarian): 50.8 µM
- TGI (A549 NSCLC): > 100 µM
- TGI (OVCAR-8 ovarian): > 100 µM
- TGI (SK-MEL-5 melanoma): > 100 µM
- TGI (SNB-75 CNS): 24 µM
- TGI (CAKI-1 renal): > 100 µM
- TGI (TK-10 renal): > 100 µM
- TGI (IGROV1 ovarian): > 100 µM
- TGI (NCI-H522 lung): 48 µM
- TGI (COLO 205 colon): > 100 µM
